Patent US20190256929A1, “PHARMACODYNAMIC BIOMARKERS FOR PERSONALIZED CANCER CARE USING EPIGENETIC MODIFYING AGENTS” (ORYZON GENOMICS, S.A., priority 2016, published 2019)

System: panel of 14 cell lines (small cell lung cancer, non-small-cell lung cancer, acute myelogenic leukemia, acute lymphoblastic T-cell leukemia)
Assay: RNA-seq differential gene expression of PD markers in a panel of 14 cell lines
Assay type: cell-based, human
Settings: 5 nM, 6 days
Experimental: A panel of 14 cell lines was treated with (trans)-N1-((1R,2S)-2-phenylcyclopropyl)cyclohexane-1,4-diamine (5 nM) or control vehicle for 6 days. The panel included eight small cell lung cancer cell lines (COLO 668, DMS 53, NCI-H146, NCI-H187, NCI-H446, NCI-H510A, NCI-H1417, SHP-77), two non-small-cell lung cancer cell lines (CAL-12T, NCI-H441), two acute myelogenic leukemia cell lines (KASUMI, OCI-AML2), and two acute lymphoblastic T-cell leukemia cell lines (JURKAT, SUP-T1).
Each cell line-treatment pair contained two to four biological replicates.
Expression data were obtained from whole transcriptomic RNA sequencing (RNA-seq) by Illumina, Inc. (San Diego, Calif.). The Illumina HiSeq machine generates raw base calls in reads of 50 or 100 bp length, which are subjected to several data analysis steps. The RNA-seq is conducted at 40 to 50 million reads per sample. This number provides relatively high sensitivity to detect low-expressed genes while allowing for cost-effective multiplexing of samples. RNA is prepared by standard kits and RNA libraries by polyA TruSeq Illumina kits. 100 ng of mRNA per cell line is used for each RNA-seq reaction. A number of quality control procedures are applied to the RNA-seq data for each sample. The Illumina HiSeq software reports the total number of clusters (DNA fragments) loaded in each lane, percent passing sequencing quality filters (which identifies errors due to overloading and sequencing chemistry), a phred quality score for each base of each sequence read, overall average phred scores for each sequencing cycle, and overall percent error (based on alignment to the reference genome). For each RNA-seq sample, the percentage of reads that contain mitochondrial and ribosomal RNA was calculated. The FASTQC package was used to provide additional QC metrics (base distribution, sequence duplication, overrepresented sequences, and enriched kmers) and a graphical summary. Raw reads were aligned against the human genome (hg19) using GSNAP and recommended options for RNASeq data. In addition to the genome sequence, GSNAP is given a database of human splice junctions and transcripts based on Ensembl v73. Resulting SAM files are then converted to sorted BAM files using Samtools. Gene expression values are calculated both as RPKM values following (Mortazavi A. et al. (2008) Nature Methods 5:621-628) and as read counts.
Differential gene expression analysis was performed using the DESeq2 package (Love M. I. et al. (2014) Genome Biology 15:550). Read counts from RNA-seq data were analyzed via a multi-factor generalized linear model of the negative binomial family, considering both treatment and the cell line type as factors that explain the changes in gene expression values.
The following filtering process was applied to identify genes that can serve as PD markers in surrogate tissues (skin or blood): • 1. […] The minimal expression level of the gene in normal blood and skin tissues was greater than one read per kilobase per million reads (RPKM, Mortazavi et al.), as obtained from the Genotype-Tissue Experssion (GTEx) project (The GTEx Consortium (2015) Science 348(6235):648-660). • 4. The minimal expression level of the gene in PBMC tissues was greater than 20 fragments per kilobase per million (FPKM; Trapnell C. et al. (2010) Nature Biotechnology 28:511-515) as obtained from the Ohmomo et al. study (Ohmomo H. et al. (2014) PLOS ONE 9(8):1-11). • 5. The gene is a target of LSD1, as determined by chromatin immunoprecipitation (ChIP) assay from the Adamo et al. study, or interacts with the LSD1 gene, as annotated by the BioGRID database (thebiogrid.org).
Additionally, we analyzed differential gene expression for a set of 35 genes which were previously identified as predictive biomarkers of response to LSD1 treatment.
Differentially expressed pathway analysis was done by the MetaBase R Library (Thompson Reuters).

[1] = RNA-seq, median across all cell lines, vs vehicle

N[C@H]1CC[C@H](N[C@@H]2C[C@H]2c2ccccc2)CC1 [RG6016, (trans)-N1-((1R,2S)-2-phenylcyclopropyl)cyclohexane-1,4-diamine]
ASCL1 differential gene expression after treatment (in words) (RNA-seq): very significantly down-regulated
GRP differential gene expression after treatment (in words) (RNA-seq): very significantly down-regulated
CNN2 Median Log2 FC [1]: 0.35
DENND5A Median Log2 FC [1]: 0.32
NOTCH1 Median Log2 FC [1]: 0.49
VIM Median Log2 FC [1]: 0.46
ZFP36L1 Median Log2 FC [1]: 0.27
ASCL1 Median Log2 FC (RNA-seq, vs vehicle): −0.16
GRP Median Log2 FC (RNA-seq, vs vehicle): −0.26
development NOTCH signaling pathway, differentially expressed pathway analysis (MetaBase R Library, RNA-seq data): one of the most significantly differentially expressed pathway
